Data published in PubChem BioAssay (NCI).
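Grown in 96-well plates, cells were treated for 48 hours with each compound at five concentrations. Insufficient inhibition: endpoint recorded as highest concentration tested. TGI is the concentration that stops growth completely.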

Experiments:
Experiment in all cases: NCI tumour cell line growth inhibition, 48 h
SK-OV-3 ovarian = tested on: SK-OV-3 ovarian
NCI/ADR-RES ovarian = tested on: NCI/ADR-RES ovarian
LOX IMVI melanoma = tested on: LOX IMVI melanoma
IGROV1 ovarian = tested on: IGROV1 ovarian
CCRF-CEM leukemia = tested on: CCRF-CEM leukemia
PC-3 prostate = tested on: PC-3 prostate
NCI-H522 lung = tested on: NCI-H522 lung
COLO 205 colon = tested on: COLO 205 colon
786-0 renal = tested on: 786-0 renal
RXF 393 renal = tested on: RXF 393 renal
MDA-MB-231 breast = tested on: MDA-MB-231 breast
T-47D breast = tested on: T-47D breast
SK-MEL-2 melanoma = tested on: SK-MEL-2 melanoma
KM12 colon = tested on: KM12 colon
SF-539 CNS = tested on: SF-539 CNS
HCC-2998 colon = tested on: HCC-2998 colon
DU-145 prostate = tested on: DU-145 prostate
SNB-19 CNS = tested on: SNB-19 CNS
HCT-116 colon = tested on: HCT-116 colon
SN12C renal = tested on: SN12C renal
SNB-75 CNS = tested on: SNB-75 CNS
CAKI-1 renal = tested on: CAKI-1 renal
HOP-92 NSCLC = tested on: HOP-92 NSCLC
A549 NSCLC = tested on: A549 NSCLC
SF-295 CNS = tested on: SF-295 CNS
SF-268 CNS = tested on: SF-268 CNS
EKVX NSCLC = tested on: EKVX NSCLC
K-562 leukemia = tested on: K-562 leukemia
MDA-MB-435 = tested on: MDA-MB-435
MDA-N = tested on: MDA-N
SR leukemia = tested on: SR leukemia
MOLT-4 leukemia = tested on: MOLT-4 leukemia
OVCAR-4 ovarian = tested on: OVCAR-4 ovarian
UO-31 renal = tested on: UO-31 renal
MCF7 breast = tested on: MCF7 breast
TK-10 renal = tested on: TK-10 renal
SW-620 colon = tested on: SW-620 colon
UACC-257 melanoma = tested on: UACC-257 melanoma
OVCAR-3 ovarian = tested on: OVCAR-3 ovarian
M14 melanoma = tested on: M14 melanoma
HS 578T breast = tested on: HS 578T breast
NCI-H460 lung = tested on: NCI-H460 lung
HCT-15 colon = tested on: HCT-15 colon
ACHN renal = tested on: ACHN renal
MALME-3M melanoma = tested on: MALME-3M melanoma
U251 CNS = tested on: U251 CNS
BT-549 breast = tested on: BT-549 breast
OVCAR-5 ovarian = tested on: OVCAR-5 ovarian
RPMI-8226 leukemia = tested on: RPMI-8226 leukemia
HT29 colon = tested on: HT29 colon
UACC-62 melanoma = tested on: UACC-62 melanoma
SK-MEL-28 melanoma = tested on: SK-MEL-28 melanoma
HL-60(TB) leukemia = tested on: HL-60(TB) leukemia
SK-MEL-5 melanoma = tested on: SK-MEL-5 melanoma
NCI-H226 lung = tested on: NCI-H226 lung
NCI-H23 lung = tested on: NCI-H23 lung
HOP-62 NSCLC = tested on: HOP-62 NSCLC
OVCAR-8 ovarian = tested on: OVCAR-8 ovarian

SMILES: Cn1c2ccccc2c(=NNc2ccc(S(N)(=O)=O)cc2)c2ccccc21
- TGI (SK-OV-3 ovarian): > 50 µM
- TGI (NCI/ADR-RES ovarian): > 50 µM
- TGI (LOX IMVI melanoma): 38.1 µM
- TGI (IGROV1 ovarian): > 50 µM
- TGI (CCRF-CEM leukemia): > 50 µM
- TGI (PC-3 prostate): > 50 µM
- TGI (NCI-H522 lung): > 50 µM
- TGI (COLO 205 colon): > 50 µM
- TGI (786-0 renal): > 50 µM
- TGI (RXF 393 renal): 43.7 µM
- TGI (MDA-MB-231 breast): > 50 µM
- TGI (T-47D breast): 34.8 µM
- TGI (SK-MEL-2 melanoma): 34.3 µM
- TGI (KM12 colon): > 50 µM
- TGI (SF-539 CNS): > 50 µM
- TGI (HCC-2998 colon): 38.7 µM
- TGI (DU-145 prostate): > 50 µM
- TGI (SNB-19 CNS): > 50 µM
- TGI (HCT-116 colon): > 50 µM
- TGI (SN12C renal): > 50 µM
- TGI (SNB-75 CNS): 46.6 µM
- TGI (CAKI-1 renal): > 50 µM
- TGI (HOP-92 NSCLC): 35.8 µM
- TGI (A549 NSCLC): > 50 µM
- TGI (SF-295 CNS): > 50 µM
- TGI (SF-268 CNS): > 50 µM
- TGI (EKVX NSCLC): > 50 µM
- TGI (K-562 leukemia): 40.4 µM
- TGI (MDA-MB-435): > 50 µM
- TGI (MDA-N): > 50 µM
- TGI (SR leukemia): 25.6 µM
- TGI (MOLT-4 leukemia): 26.9 µM
- TGI (OVCAR-4 ovarian): > 50 µM
- TGI (UO-31 renal): 41.1 µM
- TGI (MCF7 breast): 43.1 µM
- TGI (TK-10 renal): > 50 µM
- TGI (SW-620 colon): > 50 µM
- TGI (UACC-257 melanoma): 49.8 µM
- TGI (OVCAR-3 ovarian): > 50 µM
- TGI (M14 melanoma): > 50 µM
- TGI (HS 578T breast): > 50 µM
- TGI (NCI-H460 lung): 34.3 µM
- TGI (HCT-15 colon): > 50 µM
- TGI (ACHN renal): 29 µM
- TGI (MALME-3M melanoma): 43.2 µM
- TGI (U251 CNS): > 50 µM
- TGI (BT-549 breast): > 50 µM
- TGI (OVCAR-5 ovarian): > 50 µM
- TGI (RPMI-8226 leukemia): > 50 µM
- TGI (HT29 colon): > 50 µM
- TGI (UACC-62 melanoma): > 50 µM
- TGI (SK-MEL-28 melanoma): > 50 µM
- TGI (HL-60(TB) leukemia): 32 µM
- TGI (SK-MEL-5 melanoma): 22.5 µM
- TGI (NCI-H226 lung): 48.4 µM
- TGI (NCI-H23 lung): > 50 µM
- TGI (HOP-62 NSCLC): > 50 µM
- TGI (OVCAR-8 ovarian): > 50 µM

SMILES: CCN(CC)CCn1c(=O)c2ccccc2n2c3c(=O)n(C)c(=O)n(C)c3nc12
- TGI (SK-OV-3 ovarian): 4.77 µM
- TGI (NCI/ADR-RES ovarian): 30.2 µM
- TGI (LOX IMVI melanoma): 31.3 µM
- TGI (IGROV1 ovarian): 23.3 µM
- TGI (CCRF-CEM leukemia): 13.1 µM
- TGI (PC-3 prostate): 20.4 µM
- TGI (NCI-H522 lung): 9 µM
- TGI (COLO 205 colon): 14.5 µM
- TGI (786-0 renal): 5.43 µM
- TGI (RXF 393 renal): 34.4 µM
- TGI (MDA-MB-231 breast): 19.3 µM
- TGI (T-47D breast): 20.8 µM
- TGI (SK-MEL-2 melanoma): 6.61 µM
- TGI (KM12 colon): 6.03 µM
- TGI (SF-539 CNS): 2.95 µM
- TGI (HCC-2998 colon): 6.8 µM
- TGI (DU-145 prostate): 4.47 µM
- TGI (SNB-19 CNS): 38.1 µM
- TGI (HCT-116 colon): 8.71 µM
- TGI (SN12C renal): 10.2 µM
- TGI (SNB-75 CNS): 7.46 µM
- TGI (CAKI-1 renal): 3.91 µM
- TGI (HOP-92 NSCLC): 7.85 µM
- TGI (A549 NSCLC): 2.05 µM
- TGI (SF-295 CNS): 10.1 µM
- TGI (SF-268 CNS): 12.1 µM
- TGI (EKVX NSCLC): 11.7 µM
- TGI (K-562 leukemia): 19.4 µM
- TGI (MDA-MB-435): 15.9 µM
- TGI (MDA-N): 17.6 µM
- TGI (SR leukemia): 5.15 µM
- TGI (MOLT-4 leukemia): 4.73 µM
- TGI (OVCAR-4 ovarian): 23.5 µM
- TGI (UO-31 renal): 6.29 µM
- TGI (MCF7 breast): 6.2 µM
- TGI (TK-10 renal): 52.5 µM
- TGI (SW-620 colon): 16.1 µM
- TGI (UACC-257 melanoma): 16.7 µM
- TGI (OVCAR-3 ovarian): 16.4 µM
- TGI (M14 melanoma): 13 µM
- TGI (HS 578T breast): 19.6 µM
- TGI (NCI-H460 lung): 1.65 µM
- TGI (HCT-15 colon): 66.2 µM
- TGI (ACHN renal): 1.09 µM
- TGI (MALME-3M melanoma): 10.6 µM
- TGI (U251 CNS): 6.03 µM
- TGI (BT-549 breast): 4.22 µM
- TGI (OVCAR-5 ovarian): 7.09 µM
- TGI (RPMI-8226 leukemia): 5.94 µM
- TGI (HT29 colon): 9.55 µM
- TGI (UACC-62 melanoma): 3.22 µM
- TGI (SK-MEL-28 melanoma): 18.3 µM
- TGI (HL-60(TB) leukemia): 2.5 µM
- TGI (SK-MEL-5 melanoma): 2.94 µM
- TGI (NCI-H226 lung): 3.35 µM
- TGI (NCI-H23 lung): 10.1 µM
- TGI (HOP-62 NSCLC): 4.62 µM
- TGI (OVCAR-8 ovarian): 8.06 µM
